Consider 19 molecules from ChEMBL document CHEMBL5365509, “Structure-Activity Relationship and Molecular Docking of Quinazolinones Inhibiting Expression of COX-2, IL-1β, iNOS, and TNF-α through NF-κB Pathways” (ACS Med Chem Lett, 2023).

The source made the active and inactive calls. The rule behind the calls is not given here. Where only a bound is given, the exact number is not on record here.

Data set [1] concerns RAW264.7. Briefly: Anti-inflammatory activity in mouse RAW264.7 assessed as decrease in LPS-induced iNOS mRNA expression at 62.5 uM incubated for 16 hrs by RT-PCR analysis relative to control. Format: functional. Further details: scale not given: the % may be the effect or the level left.
The next data set is described as follows: in vitro. As to conditions: mouse.
Data set [2] deals with RAW264.7. Briefly: Anti-inflammatory activity in mouse RAW264.7 assessed as decrease in LPS-induced COX-2 mRNA expression at 62.5 uM incubated for 16 hrs by RT-PCR analysis. Format: functional, cell-based.
Data set [3] concerns RAW264.7. The data set is described as follows: Anti-inflammatory activity in mouse RAW264.7 assessed as decrease in LPS-induced COX-2 mRNA expression at 62.5 uM incubated for 16 hrs by RT-PCR analysis relative to control. Format: functional. Set-up: scale not given: the % may be the effect or the level left.
For data set [4], the system named is RAW264.7. The data set is described as follows: Anti-inflammatory activity in mouse RAW264.7 assessed as LPS-induced IL-1beta mRNA expression at 62.5 uM incubated for 16 hrs by RT-PCR analysis relative to control. Format: functional.
The test system of data set [5] is RAW264.7. The data set is described as follows: Anti-inflammatory activity in mouse RAW264.7 assessed as LPS-induced COX-2 mRNA expression at 62.5 uM incubated for 16 hrs by RT-PCR analysis relative to control. Format: functional.
The test system of data set [6] is RAW264.7. Briefly: Anti-inflammatory activity in mouse RAW264.7 assessed as decrease in LPS-induced IL-1beta mRNA expression at 62.5 uM incubated for 16 hrs by RT-PCR analysis relative to control. Type of data set: functional. Set-up: scale not given: the % may be the effect or the level left.
The subject of data set [7] is RAW264.7. The data set is described as follows: Anti-inflammatory activity in mouse RAW264.7 assessed as decrease in LPS-induced TNF-alpha mRNA expression at 62.5 uM incubated for 16 hrs by RT-PCR analysis relative to control. Format: functional. Set-up: scale not given: the % may be the effect or the level left.
Data set [8] deals with RAW264.7. Briefly: Anti-inflammatory activity in mouse RAW264.7 assessed as LPS-induced iNOS mRNA expression at 62.5 uM incubated for 16 hrs by RT-PCR analysis relative to control. Format: functional.
For data set [9], the system named is RAW264.7. Briefly: Anti-inflammatory activity in mouse RAW264.7 assessed as decrease in LPS-induced IL-1beta mRNA expression at 62.5 uM incubated for 16 hrs by RT-PCR analysis. Type of data set: functional, cell-based.
For data set [10], the system named is RAW264.7. The data set is described as follows: Anti-inflammatory activity in mouse RAW264.7 assessed as LPS-induced TNF-alpha mRNA expression at 62.5 uM incubated for 16 hrs by RT-PCR analysis relative to control. Format: functional.
For data set [11], the system named is RAW264.7. Briefly: Anti-inflammatory activity in mouse RAW264.7 assessed as decrease in LPS-induced IL-1beta mRNA expression incubated for 16 hrs by RT-PCR analysis. Format: functional, cell-based. As to conditions: dose 0.1-62.5 µM.
The test system of data set [12] is RAW264.7. The data set is described as follows: Anti-inflammatory activity in mouse RAW264.7 assessed as decrease in LPS-induced COX-2 mRNA expression incubated for 16 hrs by RT-PCR analysis. Format: functional, cell-based. As to conditions: dose 0.1-62.5 µM.
For data set [13], the system named is RAW264.7. Briefly: Cytotoxicity against mouse RAW264.7 cells assessed as cell viability at 6.25 uM by MTT assay. Format: toxicity, cell-based. Particulars: raw264.7, 6.25 µM.

Description for in vitro: Cytotoxicity against mouse RAW264.7 cells assessed as cell viability at 6.25 uM by MTT assay relative to control

As to `CC(c1ccccc1)n1cnc2ccccc2c1=O` (configuration not stated), in the data set with RAW264.7 [1], the Activity is on record as less than 22%. This molecule had a viability at 6.25 µM in the data set “in vitro” (RAW264.7 cells) of more than 80%. Moreover, the outcome in the data set on RAW264.7 [2] was Active.
With `Cn1cnc2ccccc2c1=O`, the Activity in the data set with RAW264.7 [1] is recorded as less than 22%; in the data set on RAW264.7 [3], 28.85%. This molecule also had a viability at 6.25 µM in “in vitro” (RAW264.7 cells) of more than 80%.
In the data set “in vitro” (RAW264.7 cells), `CCCCCCc1nc2ccccc2c(=O)[nH]1` displayed a viability at 6.25 µM of more than 80%. Besides, the Activity with RAW264.7 [4] was 3.1%; in the data set on RAW264.7 [3] it was 95%.
On to `Cc1cccc(-c2nc(O)c3ccccc3n2)c1`, for which, in “in vitro” (RAW264.7 cells), the viability at 6.25 µM was more than 80%. The Activity with RAW264.7 [4] is listed as less than 35%; in the data set with RAW264.7 [5] it was 3.79%.
The molecule `O=c1[nH]cnc2ccccc12` [QUINAZOLINONE] returned a viability at 6.25 µM in “in vitro” (raw264.7) of more than 80%.
Consider `O=c1c2ccccc2ncn1-c1ccccc1`, for which the Activity in the data set on RAW264.7 [1] was less than 22%; with RAW264.7 [3], 28.46%. Moreover, the viability at 6.25 µM in “in vitro” (RAW264.7 cells) was more than 80%.
Turning to `O=c1[nH]cnc2cc(F)ccc12`, the viability at 6.25 µM in “in vitro” (RAW264.7 cells) was more than 80%. Besides, the Activity with RAW264.7 [6] is 10.85%; in the data set with RAW264.7 [7] it was less than 50%.
With `O=c1[nH]cnc2ncccc12`, the Activity with RAW264.7 [8] worked out at 62.82%. Further, the viability at 6.25 µM in “in vitro” (RAW264.7 cells) is more than 80%. Besides, the outcome in the data set with RAW264.7 [9] and with RAW264.7 [2] was inactive.
`CCCCCCCCc1nc2ccccc2c(=O)[nH]1`: the Activity was 44% with RAW264.7 [10]; “Dose-Dependent Effect” with RAW264.7 [11]; “Dose-Dependent Effect” in the data set on RAW264.7 [12]; 6.92% with RAW264.7 [4]; 11.14% in the data set with RAW264.7 [5]. This molecule also displayed a viability at 6.25 µM in the data set “in vitro” (RAW264.7 cells) of more than 80%. For the same molecule, the outcome in the data set on RAW264.7 [9] was Active.
`Cc1nc2ccccc2c(=O)[nH]1` came in with a viability at 6.25 µM in the data set “in vitro” (RAW264.7 cells) of more than 80%. For the same molecule, the results for the Activity in the data set with RAW264.7 [4] and with RAW264.7 [5] were 58.79% and 60.96%, respectively.
`Oc1ncnc2cc(Cl)ccc12`: the viability at 6.25 µM in “in vitro” (RAW264.7 cells) was more than 80%. The Activity is 10.85% in the data set with RAW264.7 [6] and less than 50% in the data set with RAW264.7 [7].
As for `COc1ccc(-c2nc(O)c3ccccc3n2)cc1`, in the data set with RAW264.7 [4], the Activity is less than 35%. In addition, the result in the data set on RAW264.7 [2] was inactive.
Take `O=c1[nH]c(/C=C/c2ccccc2)nc2ccccc12`: the Activity entry in the data set on RAW264.7 [13] is reported as “Toxic”.
In the case of `O=c1[nH]c(-c2cccc(C(F)(F)F)c2)nc2ccccc12`, the Activity in the data set with RAW264.7 [8] is 13.98%; in the data set with RAW264.7 [4], less than 35%. Besides, the viability at 6.25 µM in the data set “in vitro” (RAW264.7 cells) is more than 80%. In addition, the result in the data set on RAW264.7 [2] was inactive.
In “in vitro” (RAW264.7 cells), `CC(C)c1nc2ccccc2c(=O)[nH]1` returned a viability at 6.25 µM of more than 80%. For the same molecule, in the data set with RAW264.7 [9], the result was Active. The Activity in the data set with RAW264.7 [4] was 14.02%; in the data set with RAW264.7 [5], 20.47%.
For the molecule `O=c1[nH]cnc2ccc(F)cc12`, the viability at 6.25 µM in “in vitro” (RAW264.7 cells) was more than 80%. The values for the Activity with RAW264.7 [6] and in the data set with RAW264.7 [7] were 10.85% and less than 50%, respectively.
Regarding `COc1ccc(-c2nc3ccccc3c(=O)[nH]2)cc1`, the viability at 6.25 µM in the data set “in vitro” (RAW264.7 cells) was more than 80%.
In the case of `Oc1nc(C2CCCCC2)nc2ccccc12`, the Activity is 44% in the data set on RAW264.7 [10]; “Dose-Dependent Effect” in the data set on RAW264.7 [11]; “Dose-Dependent Effect” in the data set on RAW264.7 [12]; 75.72% in the data set on RAW264.7 [6]; more than 80% with RAW264.7 [5]. Further, the viability at 6.25 µM in the data set “in vitro” (RAW264.7 cells) is more than 80%.
Turning to `CCC(C)c1nc2ccccc2c(=O)[nH]1` (configuration not stated), the values for the Activity with RAW264.7 [10], in the data set on RAW264.7 [4] and with RAW264.7 [5] were 44%, 4.02% and 0.5%, respectively. The viability at 6.25 µM in the data set “in vitro” (RAW264.7 cells) is more than 80%. For the same molecule, in the data set with RAW264.7 [9], the outcome was Active.
